Measured values reported in patent US8748377B2, “Pharmaceutical compositions” (GlaxoSmithKline LLC, priority 2008, dated 2014).
“And” between values parts separate entries of the source, which are not always exact repeats. Identical values can stand only once. Marks after values point to notes of the source that are not given here.

Assays:
[1] = Phase 2 trial: pharmacokinetics of albiglutide (plasma ELISA, population PK with NONMEM); format: in vivo, human
Procedure: (§1) Adverse event assessments and safety analyses (including electrocardiograms, vital sign measurements and physical exams) were conducted throughout the study. Nausea and vomiting were monitored for occurrence and duration. Immunogenicity assessments were performed with samples taken at baseline and at weeks 1, 4, 8, and 12, and 16. Samples were screened for anti-albiglutide antibodies via ELISA (Matthews, et al. J Clin Endocrinol Metab. 2008; DOI: 10.1210/jc.2008-1518). […] Population PK analysis was performed using a nonlinear mixed-effect modelling approach with NONMEM software (Icon Development Solutions, Ellicott City, Md.).

[2] = Baggio, et al. Diabetes 53:2492-2500, 2004; cited from earlier work
[3] = 28-day study in Japanese subjects: pharmacokinetics; format: in vivo, human; conditions: sc abdomen
Procedure: (§2) In the 100 mg monthly group, most common AEs were flatulence (n=3, 38%), vomiting (n=3, 38%) and nausea (n=2, 25%).

[4] = tested on: Japanese subjects with type 2 diabetes; experiment: 28-day single-blind placebo-controlled study in Japanese subjects: pharmacodynamics (FPG, AUC0-4 glucose, A1C); format: in vivo, human
type 2 diabetic subjects [5] = experiment: Phase 2 randomized, placebo-controlled 16-week trial of weekly, biweekly and monthly albiglutide: glycemic efficacy (A1C, FPG, weight); format: in vivo, human; conditions: for A1C change from baseline (mean) / FPG change from baseline (mean) / Subjects achieving A1C < 7.0% / A1C reduction compared with placebo (ANCOVA model) / FPG change from baseline compared with placebo: week 16; for FPG reduction in background metformin (MET) subjects: after 16 weeks; for Weight loss: across albiglutide groups
From the text: Main outcome measure was change from baseline A1C, week 16 vs placebo.
Men and women of non-childbearing potential from 18-75 years of age were eligible for inclusion if diagnosed with type 2 diabetes ≧3 months before screening. Subjects were drug-naïve (diet & exercise) or treated with diet and exercise plus metformin as monotherapy stable for >3 months before prescreening (1 week prior to screening visit). […] Additional inclusion criteria included: BMI≧20 and ≦40 kg/m^2 and A1C at screening ≧7% and ≦10%.
A1C and fasting plasma glucose (FPG) measurements were performed at Screening, Baseline, and at Weeks 2 (FPG Only), 4, 5, 7, 8, 9, 12, 15, and 16.
The primary efficacy endpoint was change from baseline A1C at week 16 vs placebo across different doses within each schedule (weekly, biweekly, and monthly). The primary analysis was an ANCOVA model with main effects for treatment group and prior metformin therapy, adjusting for baseline A1C. Dose response was evaluated using contrasts within the ANCOVA model framework. Pairwise comparisons were performed in the same ANCOVA model. Secondary endpoints were analyzed similarly. Responder analysis and incidence of hypoglycemia were summarized by group statistics. […] Safety and tolerability data were collected categorically.
(§3) Comparisons were made on the intent-to-treat population, defined as all randomly assigned subjects with at least one post-baseline assessment of the primary endpoint, using last-observation carried forward. The safety population included all randomized patients who received at least one dose of any medication after being randomized. An interim analysis was conducted at 8 weeks for administrative purposes by an independent statistical analysis group; blinding was retained for study investigators and study personnel with daily operational responsibility.
Patients were also assessed for reduction in fasting plasma glucose (FPG) and HbA1c reduction based on background metformin (MET) treatment.

[6] = tested on: Japanese subjects with type 2 diabetes; experiment: 28-day study in Japanese subjects: safety/tolerability; format: in vivo, human
Procedure: as §2

[7] = tested on: anti-albiglutide antibodies; experiment: Phase 2 trial: immunogenicity, anti-albiglutide antibodies via ELISA; format: in vivo, human
Procedure: as §1
An 11-week post-treatment washout period was included to monitor development of anti-albiglutide antibodies. […] The appearance of anti-albiglutide antibodies was largely transient, with 1 subject remaining positive at week 27. […] There was no obvious association between presence of anti-albiglutide antibodies and either efficacy or safety.

type 2 diabetic subjects [8] = tested on: type 2 diabetic subjects; set-up: species or system human; conditions: in vivo
Procedure: as §1, with “16.” for “16. Samples were screened for anti-albiglutide antibodies via ELISA (Matthews, et al. J Clin Endocrinol Metab. 2008; DOI: 10.1210/jc.2008-1518).”
as §3
Gastrointestinal (GI) adverse events may limit adherence to GLP-1 therapies.

[9] = 30 mg weekly sc, listed as albiglutide
[10] = 50 mg biweekly sc, listed as ALB
[11] = 50 mg biweekly sc, listed as albiglutide
[12] = 100 mg monthly sc, listed as ALB
[13] = 100 mg monthly sc, listed as albiglutide

## Albiglutide: Long-acting GLP-1 receptor agonist: two DPP-4-resistant human GLP-1 analogs (GLP-1(7-36)(A8G)) fused to human albumin; SEQ ID NO:1
[1]; 30 mg weekly
  Steady state achieved after: 4-5 doses
[1]; albiglutide sc
  Tmax: ~72 h
[1]; sc, type 2 diabetic subjects
  Half-life: ~120 h
  Time to steady state levels after the first dose: 4-5 weeks
[1]; sc, type 2 diabetic subjects, listed as SEQ ID NO:1
  Half-life: about 5 days
[2]
  Permeability to the central nervous system: relatively impermeant
[3]
  CL/F: 68.7 mL/h
  Plasma t1/2: 127 h
  V/F: 12.6 L
[4]; 15 mg weekly, day 29
  A1C, PBO-adjusted change from baseline (LS Means Difference): −0.58*/ %
  FPG, PBO-adjusted change from baseline (LS Means Difference): −34.5* mg/dL
[4]; 15 mg weekly, day 43
  A1C, PBO-adjusted change from baseline (LS Means Difference): −0.87* %
[4]; 30 mg weekly, day 29
  A1C, PBO-adjusted change from baseline (LS Means Difference): −0.57*/ %
  FPG, PBO-adjusted change from baseline (LS Means Difference): −35.6* mg/dL
[4]; 30 mg weekly, day 43
  A1C, PBO-adjusted change from baseline (LS Means Difference): −0.78* %
[4]; 50 mg biweekly, day 29
  A1C, PBO-adjusted change from baseline (LS Means Difference): −0.63*/ %
  FPG, PBO-adjusted change from baseline (LS Means Difference): −31.3* mg/dL
[4]; 50 mg biweekly, day 43
  A1C, PBO-adjusted change from baseline (LS Means Difference): −0.79* %
[4]; 100 mg monthly, day 29
  A1C, PBO-adjusted change from baseline (LS Means Difference): −0.51*/ %
  FPG, PBO-adjusted change from baseline (LS Means Difference): -13.2 mg/dL
[4]; 100 mg monthly, day 43
  A1C, PBO-adjusted change from baseline (LS Means Difference): −0.59* %
[4]; Japanese subjects
  Onset of improvement of FPG and weighted mean AUC0-4 glucose: improved as early as day 3
Type 2 diabetic subjects [5]; 4 mg weekly sc
  A1C change from baseline (mean): −0.11%
  FPG change from baseline (mean): -0.47 ± 3.1 mmol/L
  Subjects achieving A1C < 7.0%: 17.6%
Type 2 diabetic subjects [5]; 4 mg weekly sc, listed as ALB
  A1C change from baseline (mean): −0.1 ± 1.2%
Type 2 diabetic subjects [5]; 15 mg biweekly sc
  A1C change from baseline (mean): −0.56%
  FPG change from baseline (mean): -1.28 ± 2.4 mmol/L
  Subjects achieving A1C < 7.0%: 26.7%
Type 2 diabetic subjects [5]; 15 mg biweekly sc, listed as ALB
  A1C change from baseline (mean): −0.6 ± 1.0%
Type 2 diabetic subjects [5]; 15 mg weekly sc
  A1C change from baseline (mean): −0.49%
  FPG change from baseline (mean): -0.72 ± 1.7 mmol/L
Type 2 diabetic subjects [5]; 15 mg weekly sc, listed as ALB
  A1C change from baseline (mean): −0.5 ± 0.7%
Type 2 diabetic subjects [5]; 30 mg biweekly sc
  A1C change from baseline (mean): −0.79 ± %
  FPG change from baseline (mean): -1.58 ± 2.1 mmol/L
  Subjects achieving A1C < 7.0%: 50.0%
Type 2 diabetic subjects [5]; 30 mg biweekly sc, listed as ALB
  A1C change from baseline (mean): −0.8 ± 1.0 %
Type 2 diabetic subjects [5]; 30 mg weekly
  MET patients achieving HbA1c <7%: 43%
  FPG reduction in background metformin (MET) subjects: -1.26 mmol/L
  A1C reduction compared with placebo (ANCOVA model): −0.62%
  FPG change from baseline compared with placebo: -1.38 mmol/L
Type 2 diabetic subjects [5]; 30 mg weekly sc
  A1C change from baseline (mean): −0.87 ± %
Type 2 diabetic subjects [5]; 30 mg weekly sc, listed as ALB
  A1C change from baseline (mean): −0.9 ± 0.7 %
  FPG change from baseline (mean): -1.44 ± 2.0 mmol/L
  Subjects achieving A1C < 7.0%: 51.7%
Type 2 diabetic subjects [5]; [9]
  A1C change from baseline (mean): −0.87% and −0.9%
  FPG change from baseline (mean): -1.44 mmol/L
  Subjects achieving A1C < 7.0%: 52%
Type 2 diabetic subjects [5]; 30 mg weekly, 16 weeks
  HbA1c reduction in MET subjects: −0.78%
Type 2 diabetic subjects [5]; 50 mg biweekly
  MET patients achieving HbA1c <7%: 50%
  FPG reduction in background metformin (MET) subjects: -2.10 mmol/L
  A1C reduction compared with placebo (ANCOVA model): −0.57%
  FPG change from baseline compared with placebo: -1.16 mmol/L
Type 2 diabetic subjects [5]; 50 mg biweekly sc
  A1C change from baseline (mean): −0.79 ± %
Type 2 diabetic subjects [5]; [10]
  A1C change from baseline (mean): −0.8 ± 1.0 %
  FPG change from baseline (mean): -1.32 ± 3.5 mmol/L
  Subjects achieving A1C < 7.0%: 52.9%
Type 2 diabetic subjects [5]; [11]
  A1C change from baseline (mean): −0.79% and −0.8%
  FPG change from baseline (mean): -1.32 mmol/L
  Subjects achieving A1C < 7.0%: 53%
Type 2 diabetic subjects [5]; 50 mg biweekly, 16 weeks
  HbA1c reduction in MET subjects: −0.83%
Type 2 diabetic subjects [5]; 50 mg monthly sc
  A1C change from baseline (mean): −0.55%
  FPG change from baseline (mean): -0.72 ± 2.8 mmol/L
  Subjects achieving A1C < 7.0%: 22.9%
Type 2 diabetic subjects [5]; 50 mg monthly sc, listed as ALB
  A1C change from baseline (mean): −0.6 ± 1.0%
Type 2 diabetic subjects [5]; 100 mg monthly
  MET patients achieving HbA1c <7%: 46%
  FPG reduction in background metformin (MET) subjects: -1.80 mmol/L
  A1C reduction compared with placebo (ANCOVA model): −0.60%
  FPG change from baseline compared with placebo: -1.17 mmol/L
Type 2 diabetic subjects [5]; 100 mg monthly sc
  A1C change from baseline (mean): −0.87 ± %
Type 2 diabetic subjects [5]; [12]
  A1C change from baseline (mean): −0.9 ± 0.9 %
  FPG change from baseline (mean): -1.22 ± 3.5 mmol/L
  Subjects achieving A1C < 7.0%: 48.4%
Type 2 diabetic subjects [5]; [13]
  A1C change from baseline (mean): −0.87% and −0.9%
  FPG change from baseline (mean): -1.22 mmol/L
  Subjects achieving A1C < 7.0%: 48%
Type 2 diabetic subjects [5]; 100 mg monthly, 16 weeks
  HbA1c reduction in MET subjects: −0.77%
Type 2 diabetic subjects [5]; 16-week trial
  Mean systolic and diastolic blood pressure: tended to reduce
  Plasma lipoprotein profile: did not significantly change
Type 2 diabetic subjects [5]; MET group, 16 weeks
  Weight loss: −0.4 to −2.1 kg
Type 2 diabetic subjects [5]; highest dose regimens in each timing schedule, 16 weeks
  Average weight loss: −1.1 to −1.7 kg
Type 2 diabetic subjects [5]; maximum doses of each schedule (30 mg weekly, 50 mg biweekly, 100 mg monthly)
  A1C reduction from a mean baseline A1C of 8.0%: 0.8-0.9%
Type 2 diabetic subjects [5]; overall population, 16 weeks
  Weight loss: −0.9 to −1.8 kg
Type 2 diabetic subjects [5]; subjects receiving albiglutide
  β-cell function (assessed by HOMA-B): Small improvements
[6]; 100 mg monthly group, n=2
  Nausea (AE incidence): 25%
[6]; 100 mg monthly group, n=3
  Flatulence (AE incidence): 38%
  Vomiting (AE incidence): 38%
[6]; all doses, 28 days
  Serious AEs: No serious AEs
  Tolerability: generally well-tolerated
[7]; 8 subjects in placebo and albiglutide arms, incl. 1 on placebo and 2 positive at baseline, through week 27
  Subjects positive for anti-albiglutide antibodies: 2.5%
[7]; antibody-positive subjects
  Character of anti-albiglutide antibodies: non-neutralizing, low-titer
Type 2 diabetic subjects [8]
  Documented hypoglycemia: 0-3.1%
  Documented hypoglycemia (in words): not increased
  Injection site local skin reactions: 2.9-28.2%
